From ChEMBL document CHEMBL1201862, “PubChem BioAssay data set” (2004)
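Assay format: 96-well plates, 48-hour exposure. Abbreviation: GI50, concentration required for 50% inhibition of growth.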 Calls of active or inactive are those of the source. No stated cut-off is given here; in the data, active = GI50 up to about 1.1 µM and inactive = higher.

Tests used:
Assay in all cases: NCI tumour cell line growth inhibition, 48 h
SF-295 = tested on: SF-295
LOX IMVI = tested on: LOX IMVI
RXF 393 = tested on: RXF 393
OVCAR-5 = tested on: OVCAR-5
SF-539 = tested on: SF-539
HT-29 = tested on: HT-29
A549 = tested on: A549
SNB-19 = tested on: SNB-19
SK-MEL-2 = tested on: SK-MEL-2
K562 = tested on: K562
786-0 = tested on: 786-0
EKVX = tested on: EKVX
TK-10 = tested on: TK-10
NCI-H460 = tested on: NCI-H460
KM12 = tested on: KM12
NCI-H226 = tested on: NCI-H226
UO-31 = tested on: UO-31
CCRF-CEM = tested on: CCRF-CEM

| SMILES | GI50 (SF-295) | GI50 (LOX IMVI) | GI50 (RXF 393) | GI50 (OVCAR-5) | GI50 (SF-539) | GI50 (HT-29) | GI50 (A549) | GI50 (SNB-19) | GI50 (SK-MEL-2) | GI50 (K562) | GI50 (786-0) | GI50 (EKVX) | GI50 (TK-10) | GI50 (NCI-H460) | GI50 (KM12) | GI50 (NCI-H226) | GI50 (UO-31) | GI50 (CCRF-CEM) |
| --- | --- | --- | --- | --- | --- | --- | --- | --- | --- | --- | --- | --- | --- | --- | --- | --- | --- | --- |
| O=C(O)NC(c1ccccc1)C(NC(=O)c1ccccc1)c1ccccc1 (configuration not stated) | > 100 µM (inactive) | 61.8 µM (inactive) | > 100 µM (inactive) | > 100 µM (inactive) | > 100 µM (inactive) | > 100 µM (inactive) | > 100 µM (inactive) | > 100 µM (inactive) | > 100 µM (inactive) | > 100 µM (inactive) | > 100 µM (inactive) | > 100 µM (inactive) | > 100 µM (inactive) | > 100 µM (inactive) | > 100 µM (inactive) | – | – | – |
| COC(=O)CCC(NC(=S)N/N=C(\C)c1cccs1)C(=O)OC (configuration not stated) | > 100 µM (inactive) | > 100 µM (inactive) | > 100 µM (inactive) | > 100 µM (inactive) | > 100 µM (inactive) | > 100 µM (inactive) | > 100 µM (inactive) | > 100 µM (inactive) | > 100 µM (inactive) | > 100 µM (inactive) | > 100 µM (inactive) | > 100 µM (inactive) | > 100 µM (inactive) | > 100 µM (inactive) | > 100 µM (inactive) | > 100 µM (inactive) | > 100 µM (inactive) | – |
| CC1=C2C=CC(=O)C[C@@]2(C)CCC1 | > 100 µM (inactive) | > 100 µM (inactive) | > 100 µM (inactive) | > 100 µM (inactive) | > 100 µM (inactive) | > 100 µM (inactive) | > 100 µM (inactive) | > 100 µM (inactive) | > 100 µM (inactive) | > 100 µM (inactive) | > 100 µM (inactive) | > 100 µM (inactive) | > 100 µM (inactive) | > 100 µM (inactive) | > 100 µM (inactive) | – | > 100 µM (inactive) | > 100 µM (inactive) |
| CCCN1CN(C(C(=O)N[C@@H]2C(=O)N3C(C(=O)O)=C(C)CSC23)c2ccccc2)CSC1=S (some centres not stated) | > 100 µM (inactive) | 47.4 µM (inactive) | 25.9 µM (inactive) | > 100 µM (inactive) | > 100 µM (inactive) | > 100 µM (inactive) | > 100 µM (inactive) | > 100 µM (inactive) | > 100 µM (inactive) | 47.6 µM (inactive) | > 100 µM (inactive) | > 100 µM (inactive) | > 100 µM (inactive) | 42.5 µM (inactive) | > 100 µM (inactive) | – | > 100 µM (inactive) | 95.1 µM (inactive) |
| CC(=O)OCC1OC(NC(=O)N(CCCl)N=O)C(OC(C)=O)C(OC(C)=O)C1OC(C)=O (configuration not stated) | 97.1 µM (inactive) | 44.8 µM (inactive) | > 100 µM (inactive) | > 100 µM (inactive) | > 89.1 µM (inactive) | > 100 µM (inactive) | > 100 µM (inactive) | > 65.8 µM (inactive) | > 100 µM (inactive) | > 100 µM (inactive) | – | 54.8 µM (inactive) | – | > 83.8 µM (inactive) | > 100 µM (inactive) | 3.86 µM (inactive) | > 100 µM (inactive) | > 100 µM (inactive) |
| COc1ccc2[nH]c3c(C)c4cc[n+](COC(=O)c5ccccc5)cc4c(C)c3c2c1 | 0.184 µM (active) | 0.21 µM (active) | – | 0.879 µM (active) | 0.305 µM (active) | 0.117 µM (active) | 0.269 µM (active) | 0.713 µM (active) | – | 0.221 µM (active) | 0.138 µM (active) | – | 0.55 µM (active) | 0.0357 µM (active) | 0.61 µM (active) | – | 1.76 µM (inactive) | 0.0698 µM (active) |
| O=C(O)COc1ccc(C(=O)/C(SS/C(C(=O)c2ccc(OCC(=O)O)c(Cl)c2Cl)=C2\C=C(c3ccccc3Cl)SS2)=C2/C=C(c3ccccc3Cl)SS2)c(Cl)c1Cl | 37.5 µM (inactive) | 9.89 µM (inactive) | – | > 70.3 µM (inactive) | 11.8 µM (inactive) | 21.7 µM (inactive) | 46.8 µM (inactive) | 22.6 µM (inactive) | 23.2 µM (inactive) | 8.91 µM (inactive) | 19.8 µM (inactive) | 40.6 µM (inactive) | 33.3 µM (inactive) | 21.8 µM (inactive) | 31.2 µM (inactive) | 17.7 µM (inactive) | 24.3 µM (inactive) | 13 µM (inactive) |
| CC1=NNC(=O)C2CCC(=O)N12 (configuration not stated) | – | – | > 100 µM (inactive) | – | > 100 µM (inactive) | – | > 100 µM (inactive) | > 100 µM (inactive) | > 100 µM (inactive) | > 100 µM (inactive) | > 100 µM (inactive) | > 100 µM (inactive) | > 100 µM (inactive) | > 100 µM (inactive) | > 100 µM (inactive) | > 100 µM (inactive) | > 100 µM (inactive) | > 100 µM (inactive) |
